Source: patent US10800714B2, “Low VOC and low odor aromatic oil” (Dow Global Technologies LLC, priority 2015, dated 2020)

What was measured:
Format in all cases: physicochemical
[1] = NBPT mixture storage at −20° C. for 4 weeks (crystal formation, flowability); conditions: solution free of crystal or flowable at −20° C.
Procedure: Recipe: 20 wt % NBPT/80 wt % Solvent
(§1) Each NBPT mixture is stored at three temperatures, room temperature (20-25° C.), 55° C., and −20° C. for 4 weeks to evaluate storage stability at elevated, ambient, and sub-ambient conditions. After 4 weeks of storage, the samples are visually inspected for (1) color, which is an indication of degradation, and (2) crystal formation, which is an indicator of insufficient solvency to carry 20 wt % NBPT.
(§2) NBPT is considered compatible with a solvent if the mixture remained clear, crystal free, and flowable at −20° C. for four weeks, and has little color (colorless or pale yellow) after four weeks at 55° C.

[2] = Solvent vapor pressure at 20° C.; conditions: neat solvent
Procedure: • (1) a vapor pressure of less than or equal to (≤) 0.01 millimeters of mercury (mmHg) at 20° C. as measured by ASTM E1719, • (2) a flash point equal to or greater than (≥) 200° F. (93° C.) as measured by ASTM D3278, • (3) a viscosity less than or equal to (≤) 200 centipoise (cP) at 25° C. as measured by ASTM D445, • (4) a hydroxyl number from 100 to 1,000 as measured by ASTM D4274, and • (5) a VOC content less of than or equal to (≤) 50 weight percent (wt %) as measured by ASTM D6886.
In one embodiment, the fertilizer stabilizer compositions of this invention have a low vapor pressure, typically less than or equal to (≤) 0.01 millimeters of mercury (mmHg), or ≤0.001 mmHg, or ≤0.0001 mmHg, at 20° C. as measured by ASTM E1719.
Only two glycol ethers are identified as compatible with NBPT: methyl CARBITOL™ (as described in WO 2014/028767 A1 and WO 2008/000196 A1, an alkyl glycol ether not of Formula 1, and a comparative sample) and DOWANOL™ EPh6 (a mixture of glycol ethers comprising at least two structures of Formula 1, and an inventive sample). […]

[3] = Compatibility of NBPT with solvent (storage study overall); conditions: clear, crystal free, flowable at −20° C. for four weeks and little color after four weeks at 55° C.; 20 wt % NBPT
Procedure: as §1, §2

Row | Compound | Solvency to carry 20 wt % NBPT [1] | Vapor pressure mmHg at 20° C. [2] [mmHg] | Vapor pressure mmHg at 20° C. ([2]; listed as methyl CARBITOL™) [mmHg] | Compatibility with NBPT [3]
1 | OCCOCCOc1ccccc1 [DOWANOL DiEPh] | not able to produce a NBPT mixture that provides sufficient solvency to carry 20 wt % NBPT | – | – | –
2 | OCCOc1ccccc1 [DOWANOL EPh] | not able to produce a NBPT mixture that provides sufficient solvency to carry 20 wt % NBPT | – | – | –
3 | CC(O)COc1ccccc1 (stereo not drawn) [DOWANOL PPh] | not able to produce a NBPT mixture that provides sufficient solvency to carry 20 wt % NBPT | – | – | –
4 | COCCOCCO [Methyl CARBITOL] | – | 0.23 | > 0.1 | compatible
